Data set [1] in a line: Hardening time of photopolymerizable resin film under continuous xenon lamp irradiation (until surface ceases to be sticky). The source says: Bisphenol A diglycidyl ether diacrylate
(§1) Trimethylolpropane triacrylate
Triethanolamine 2.5 parts by weight
Photopolymerization initiator of formula (I)
(dialkylthioxanthone derivative)
Irradiation device and conditions: […]

The nature of data set [2]: Yellowing resistance of coating film after irradiation, estimated visually. Further details: key: A: Only slight yellowing; B: Clear yellowing; C: Remarkable yellowing.
Text: The above photopolymerizable resin composition was applied to a glass plate in a thickness of 25μ and left 9 cm below a xenone lamp. The sensitivity was judged by measuring the time until the surface of the coated film ceases to be sticky (whether the coated film is sticky or not is judged by the touch with finger) under the continuous irradiation.
*^1 Yellowing resistance in the above table was estimated
visually from the state of the coating film after the
Data set [3] is described as follows: Solubility in organic solvents. The class given is physicochemical. The settings on record: organic solvent or mixture.
For data set [4] the following is noted: unsubstituted thioxanthone, background; cited from earlier work.
The conditions of data set [5]: dispersed in resin, storage for a long period; background; cited from earlier work.
A short description of data set [6]: Pencil hardness of pigmented coating film after passing under high-pressure mercury lamp (JIS K 5400). The settings on record: for Pencil hardness after passing 3 times / Pencil hardness after passing 5 times: composition (A), carbon black; for Pencil hardness after passing 3 times: 3 passages; for Pencil hardness after passing 5 times: 5 passages; for Pencil hardness after passing 6 times: composition (B), titanium oxide, 6 passages. The protocol: (§2) The following photopolymerizable resin compositions (A) and (B) were prepared. Each of the compositions was applied to an aluminum plate in a thickness of 25μ. The aluminum plate was placed on a belt conveyer moving 20 cm below an 80 W/cm high-pressure mercury lamp at a speed of 18 m/min. Relationship between the number of passage times and physical properties of the coating film was examined to obtain the results shown in Table V.
(A) Carbon black-containing composition:
Epoxy acrylate resin (Shell
as §1
Hexanediol diacrylate 14.8 parts by weight
Carbon black 2.5 parts by weight
Methyldiethanolamine 2.0 parts by weight
(§3) Photopolymerization initiator of
(§4) (B) Titanium oxide-containing
(§5) Urethane acrylate resin
(§6) Butyl acrylate 18.8 parts by weight
(§7) Vinylpyrrolidone 9.4 parts by weight
(§8) Titanium oxide (rutile type)
(§9) Methyldiethanolamine 1.5 parts by weight
*^2 Pencil hardness was determined according to JISK 5400 6, 14.

Data set [7] can be described thus: Yellowing resistance of pigmented coating film. Further details: key: A: Only slight yellowing; B: Clear yellowing; C: Remarkable yellowing. The settings on record: Table V; composition (B), titanium oxide; same criteria as Table II. The protocol:
as §2, §4, §5, §1, §6, §7, §8, §9, §3
*^3 Yellowing resistance was estimated based on the same criteria as i

Data set [8] in a line: Hardening of trifunctional maleimide photopolymerizable resin film under high-pressure mercury lamp. The note with it: 2.5 parts per 100 parts resin; 50μ on glass; 80 W/cm Hg lamp, 10 cm, 20 sec. How it is done: 16 Parts of diglycerol triglycidyl ether, 23 parts by weight of α-phenylmaleimidoacetic acid, 0.2 part by weight of dimethylaminoethyl methacrylate and 40 parts by weight of butyl acetate were reacted together at 90°-100° C. for 2 h to obtain a trifunctional photopolymerizable resin in which α-phenylmaleimidoacetic acid was added to substantially all glycidyl groups. 2.5 Parts by weight of 2,4-diisopropylthioxanthone of the present invention was added to 100 parts by weight of the above resin and the whole was kneaded thoroughly and applied onto a glass plate in a thickness of 50μ. […] In case 2,4-diisopropylthioxanthone was not added, the film was not hardened even after 60 min.

[9] abbreviates: Table III, Control Example 1, same criteria as Table II.
[10] abbreviates: 1,2-dichloroethane, read-out: Solubility, 1,2-Dichloroethane.
The mark [11] stands for this setting: 1,2-dichloropropane, read-out: Solubility, 1,2-Dichloropropane.
Setting [12] is: acetone, read-out: Solubility, Acetone.
The mark [13] stands for this setting: ethanol, read-out: Solubility, Ethanol.
The mark [14] stands for this setting: ethyl acetate, read-out: Solubility, Ethyl acetate.
[15] abbreviates: methanol, read-out: Solubility, Methanol.
The mark [16] stands for this setting: toluene, read-out: Solubility, Toluene.
[17] abbreviates: Table II, 2.5 parts initiator, 2.5 parts triethanolamine, 25μ film on glass, xenon lamp 9 cm.
The mark [18] stands for this setting: Table II, visual, after irradiation.

In brackets after ≈: the same amount, converted by molar mass. Like-named read-outs stand apart in the source and are kept apart here.

`CCc1ccc(CC)c2c(=O)c3ccccc3sc12` [1,4-Diethylthioxanthone] registered a Hardening time in data set [1] (Table III, Control Example 1) of 50 s. Moreover, the Yellowing resistance entry in data set [2] (setting [9]) is reported as “A”.
With `CC(C)c1ccc(C(C)C)c2c(=O)c3ccccc3sc12` [1,4-Diisopropylthioxanthone], the Hardening time in data set [1] (Table III, Control Example 1) was determined as 50 s. The Yellowing resistance entry in data set [2] (setting [9]) was “A”.
`Cc1ccc(C)c2c(=O)c3ccccc3sc12` [1,4-Dimethylthioxanthone] returned a Hardening time in data set [1] (Table III, Control Example 1) of 40 s. In addition, in data set [2] (setting [9]), the Yellowing resistance entry is on record as “B”.
As for `CCc1c(C(C)C)ccc2sc3ccccc3c(=O)c12` [1-Ethyl-2-isopropylthioxanthone], the Hardening time in data set [1] (Table III, Control Example 1) stood at 50 s. The Yellowing resistance entry in data set [2] (setting [9]) is on record as “A”.
As for `CCc1ccc2sc3ccccc3c(=O)c2c1C` [1-Methyl-2-ethylthioxanthone], the Hardening time in data set [1] (Table III, Control Example 1) was over 60 s.
Compound `CCc1ccc(C)c2c(=O)c3ccccc3sc12` [1-Methyl-4-ethylthioxanthone] gave a Hardening time in data set [1] (Table III, Control Example 1) of 50 s. Besides, the Yellowing resistance result in data set [2] (setting [9]) is reported as “B”.
As usually defined, the solubility is the concentration that dissolves in the medium under given conditions. As for `O=c1c2ccccc2sc2ccccc12` [Compound 1, thioxanthone], the Hardening time in data set [1] (Table III, Control Example 1) was over 60 s. Moreover, the solubility in data set [3] (setting [10]) was 11 mg/mL (≈ 51.8 mM); in data set [3] (setting [11]), under 5 mg/mL; in data set [3] (setting [12]) it was under 5 mg/mL; in data set [3] (setting [13]), under 5 mg/mL; in data set [3] (setting [14]) it was 5 mg/mL (≈ 23.6 mM); in data set [3] (setting [15]), under 5 mg/mL. The solubility in data set [3] (setting [16]) is under 5 mg/mL. The “Solubility in and compatibility with photopolymerizable compound” value in data set [4] is on record as “poor solubility”. Further, the Crystallization during storage result in data set [5] was “crystallizes out during the storage for a long period of time”.
With `Cc1ccc2sc3ccccc3c(=O)c2c1` [Compound 2, 2-methylthioxanthone], the solubility was 166 mg/mL (≈ 734 mM) in data set [3] (setting [10]); 77 mg/mL (≈ 340 mM) in data set [3] (setting [11]); 30 mg/mL (≈ 133 mM) in data set [3] (setting [12]); under 10 mg/mL in data set [3] (setting [13]); 29 mg/mL (≈ 128 mM) in data set [3] (setting [14]); under 10 mg/mL in data set [3] (setting [15]). In addition, the solubility in data set [3] (setting [16]) stood at 55 mg/mL (≈ 243 mM).
Take `CC(C)c1ccc2sc3ccccc3c(=O)c2c1` [Compound 3, 2-isopropylthioxanthone]: the solubility was over 500 mg/mL in data set [3] (setting [10]); over 500 mg/mL in data set [3] (setting [11]); 300 mg/mL (≈ 1180 mM) in data set [3] (setting [12]); 36 mg/mL (≈ 142 mM) in data set [3] (setting [13]); 300 mg/mL (≈ 1180 mM) in data set [3] (setting [14]); 33 mg/mL (≈ 130 mM) in data set [3] (setting [15]). The solubility in data set [3] (setting [16]) is over 500 mg/mL.
Consider `CCc1cc(CC)c2sc3ccccc3c(=O)c2c1` [Example 1, 2,4-diethylthioxanthone], for which the Hardening time in data set [1] (setting [17]) stood at 15 s. The Yellowing resistance result in data set [2] (setting [18]) is given as “A”. For the same compound, in data set [6], the “Pencil hardness after passing 3 times” value came out at 3H, the “Pencil hardness after passing 5 times” value is 6H and the “Pencil hardness after passing 6 times” value amounted to 3H. In data set [7], the Yellowing resistance entry is recorded as “A”.
`CC(C)c1cc(C(C)C)c2sc3ccccc3c(=O)c2c1` [Example 2, 2,4-diisopropylthioxanthone] had a Hardening time in data set [1] (setting [17]) of 10 s. Besides, the Yellowing resistance result in data set [2] (setting [18]) and in data set [7] was “A” each time. In addition, the solubility is over 500 mg/mL in data set [3] (setting [10]); over 500 mg/mL in data set [3] (setting [11]); over 400 mg/mL in data set [3] (setting [12]); 90 mg/mL (≈ 304 mM) in data set [3] (setting [13]); over 500 mg/mL in data set [3] (setting [14]); 60 mg/mL (≈ 202 mM) in data set [3] (setting [15]). Besides, the solubility in data set [3] (setting [16]) was over 500 mg/mL. Also, in data set [6], the “Pencil hardness after passing 3 times” value was determined as 4H. Besides, the “Pencil hardness after passing 5 times” value in data set [6] is at least 6H. Moreover, the “Pencil hardness after passing 6 times” value in data set [6] turned out to be 4H. Also, the Hardened coating film result in data set [8] is recorded as “coating film insoluble in dichloroethane or acetone”.
The compound `Cc1cc(C(C)(C)C)cc2c(=O)c3ccccc3sc12` [Example 5, m-tert-butylmethyl thioxanthone] showed a Hardening time in data set [1] (setting [17]) of 15 s. Also, the Yellowing resistance result in data set [2] (setting [18]) was “A”.
`CC(C)(C)c1cc(C(C)(C)C)c2sc3ccccc3c(=O)c2c1` [Example 10, 2,4-di-tert-butylthioxanthone] yielded a Hardening time in data set [1] (setting [17]) of 25 s. Besides, the Yellowing resistance result in data set [2] (setting [18]) is “A”.
In turn, `CC(C)c1ccc2sc3ccccc3c(=O)c2c1` [Isopropylthioxanthone] had a Hardening time in data set [1] (Table III, Control Example 1) of 20 s. For the same compound, the Yellowing resistance entry in data set [2] (setting [9]) was “B”.
As for Ethylthioxanthone, the Hardening time in data set [1] (Table III, Control Example 1) is 40 s. Also, the Yellowing resistance result in data set [2] (setting [9]) is “C”.
For the compound Methylthioxanthone, the Hardening time in data set [1] (Table III, Control Example 1) amounted to 40 s. Moreover, the Yellowing resistance entry in data set [2] (setting [9]) is recorded as “C”.

The record behind these values is US4450279A, “Dialkylthioxanthones” (priority 1981, dated 1984).
